Values of other authors, collected in patent US6020121A (priority 1996, dated 2000).

Tested on: production of several toxins
Conditions: Agr independent; cited from earlier work

## CCCCCCCCCCCC(=O)OCC(O)CO (stereo not shown) [GML, Glycerol monolaureate, reference compound]
  production of several toxins: lower the production of several toxins in an Agr independent manner
